Experimental data published in ChEMBL document CHEMBL4020833, “A Systematic Exploration of Macrocyclization in Apelin-13: Impact on Binding, Signaling, Stability, and Cardiovascular Effects” (J Med Chem, 2018).
Starred links: 1 amine or outer side, 2 acyl side, 3 side chain; linkers in the order of their positions; H or OH if unused. Positions of bridges follow the written chain, without caps; N, C: chain ends. Non-standard residues stand in square brackets, D forms with d. Residues, ends and D or L forms follow the SMILES beside them. *: point of attachment. X1 = O=C([C@H](CCN(CC=[*:3])S(=O)(=O)c1ccccc1[N+](=O)[O-])N[*:1])[*:2]; X6 = N=C(N)NCCC[C@H](NC(=O)[C@@H]1CCC(=O)N1)C(=O)[C@@H]1CCCN1*; X3 = C=CCN([C@@H](CCCNC(=N)N)C(=O)[*:2])[*:1]; X5 = O=C([C@H](CCNCC=[*:3])N[*:1])[*:2]; AllylGly = C=CC[C@H](N)C(=O)O; pGlu = O=C1CC[C@@H](C(=O)O)N1; Nle = CCCC[C@H](N)C(=O)O; CO = O=C([*:1])[*:2]

Assays:
Apelin receptor [1] = biological target: T1, Apelin receptor (Homo sapiens, UniProt P35414); assay: Activity at GFP10-tagged human APJ receptor expressed in HEK293 cells assessed as induction of RlucII-tagged beta-arrestin-2 recruitment after 30 mins by BRET assay; format: cell-based
T1 sequence (P35414 whole entry): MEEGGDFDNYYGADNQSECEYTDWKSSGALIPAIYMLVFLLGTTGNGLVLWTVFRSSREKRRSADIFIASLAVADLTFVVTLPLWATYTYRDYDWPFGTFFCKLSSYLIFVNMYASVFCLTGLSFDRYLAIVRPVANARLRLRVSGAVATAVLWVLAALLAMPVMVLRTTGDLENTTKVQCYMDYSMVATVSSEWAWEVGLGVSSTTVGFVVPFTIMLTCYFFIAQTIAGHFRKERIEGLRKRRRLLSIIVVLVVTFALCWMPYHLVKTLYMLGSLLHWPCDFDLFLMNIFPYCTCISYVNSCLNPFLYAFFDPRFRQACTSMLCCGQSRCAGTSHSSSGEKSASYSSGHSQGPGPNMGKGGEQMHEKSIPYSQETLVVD

Apelin receptor [2] = biological target: T1, Apelin receptor; assay: Displacement of [125I]-[Nle75, Tyr77] Pyr1-apelin-13 from YFP-tagged human APJ receptor expressed in HEK293 cell membranes after 1 hr by gamma-counting method
Apelin receptor [3] = biological target: T1, Apelin receptor; assay: Activity at human APJ receptor expressed in HEK293 cells assessed as dissociation of Galphai1 from Gbetagamma subunit after 5 mins by BRET assay; format: cell-based

| Structure (SMILES) | Ki (Apelin receptor [2]) | other results |
| --- | --- | --- |
| C=CC[C@H](NC(=O)[C@H](Cc1ccccc1)NC(=O)[C@@H]1CCCN1C(=O)[C@H](CCCC)NC(=O)[C@H](CC=C)NC(=O)CNC(=O)[C@H](CCCCN)NC(=O)[C@H](Cc1cnc[nH]1)NC(=O)[C@H](CO)NC(=O)[C@H](CC(C)C)NC(=O)[C@H](CCCNC(=N)N)NC(=O)[C@@H]1CCCN1C(=O)[C@H](CCCNC(=N)N)NC(=O)[C@@H]1CCC(=O)N1)C(=O)O ([pGlu]RPRLSHKG[AllylGly][Nle]PF[AllylGly]-OH) | 445 nM | – |
| CCCC[C@H](NC(=O)[C@@H]1CCCN1C(=O)CNC(=O)[C@@H]1C/C=C\C[C@H](NC(=O)[C@@H]2CCCN2C(=O)[C@H](CCCNC(=N)N)NC(=O)[C@@H]2CCC(=O)N2)C(=O)N[C@@H](CC(C)C)C(=O)N[C@@H](CO)C(=O)N[C@@H](Cc2cnc[nH]2)C(=O)N1)C(=O)N1CCC[C@H]1C(=O)N[C@@H](Cc1ccccc1)C(=O)O ([pGlu]RP[AllylGly]LSH[AllylGly]GP[Nle]PF-OH; staple (Z) 4-8) | 6070 nM | – |
| CCCC[C@@H]1NC(=O)[C@@H]2CCCN2C(=O)[C@@H](NC(=O)[C@H](CCCCN)NC(=O)[C@H](Cc2cnc[nH]2)NC(=O)[C@H](CO)NC(=O)[C@H](CC(C)C)NC(=O)[C@H](CCCNC(=N)N)NC(=O)[C@@H]2CCCN2C(=O)[C@H](CCCNC(=N)N)NC(=O)[C@@H]2CCC(=O)N2)CCNC/C=C\C[C@H](C(=O)O)NC(=O)[C@@H]2CCCN2C1=O | – | Ki (Apelin receptor [2]; hek293): 206 nM |
| C=CC[C@H](NC(=O)[C@H](CC(C)C)NC(=O)[C@H](CCCNC(=N)N)NC(=O)[C@@H]1CCCN1C(=O)[C@H](CC=C)NC(=O)[C@@H]1CCC(=O)N1)C(=O)N[C@@H](Cc1cnc[nH]1)C(=O)N[C@@H](CCCCN)C(=O)NCC(=O)N1CCC[C@H]1C(=O)N[C@@H](CCCC)C(=O)N1CCC[C@H]1C(=O)N[C@@H](Cc1ccccc1)C(=O)O | 523 nM | – |
| CCCC[C@@H]1NC(=O)[C@@H]2CCCN2C(=O)[C@@H](NC(=O)[C@H](CCCCN)NC(=O)[C@H](Cc2cnc[nH]2)NC(=O)[C@H](CO)NC(=O)[C@H](CC(C)C)NC(=O)[C@H](CCCNC(=N)N)NC(=O)[C@@H]2CCCN2C(=O)[C@H](CCCNC(=N)N)NC(=O)[C@@H]2CCC(=O)N2)CCNC/C=C\C[C@@H](C(=O)O)NC(=O)[C@@H]2CCCN2C1=O | 917 nM | – |
| CCCC[C@@H]1NC(=O)[C@@H]2CCCN2C(=O)[C@@H](N)CCN(S(=O)(=O)c2ccccc2[N+](=O)[O-])C/C=C\C[C@@H](C(=O)O)NC(=O)[C@@H]2CCCN2C1=O (H-[X1]P[Nle]P[AllylGly]-OH; staple (Z) 1-5) | > 10000 nM | – |
| C=CC[C@H](NC(=O)[C@H](Cc1cnc[nH]1)NC(=O)[C@H](CO)NC(=O)[C@H](CC(C)C)NC(=O)[C@H](CC=C)NC(=O)[C@@H]1CCCN1C(=O)[C@H](CCCNC(=N)N)NC(=O)[C@@H]1CCC(=O)N1)C(=O)NCC(=O)N1CCC[C@H]1C(=O)N[C@@H](CCCC)C(=O)N1CCC[C@H]1C(=O)N[C@@H](Cc1ccccc1)C(=O)O ([pGlu]RP[AllylGly]LSH[AllylGly]GP[Nle]PF-OH) | 489 nM | – |
| CCCC[C@@H]1NC(=O)[C@@H]2CCCN2C(=O)[C@@H](N)CCNC/C=C\C[C@@H](C(=O)O)NC(=O)[C@@H]2CCCN2C1=O (H-[X5]P[Nle]P[AllylGly]-OH; staple (Z) 1-5) | > 10000 nM | – |
| CCCC[C@@H]1NC(=O)[C@@H]2CCCN2C(=O)[C@@H](NC(=O)[C@H](CCCCN)NC(=O)[C@H](Cc2cnc[nH]2)NC(=O)[C@H](CO)NC(=O)[C@H](CC(C)C)NC(=O)[C@H](CCCNC(=N)N)NC(=O)[C@@H]2CCCN2C(=O)[C@H](CCCNC(=N)N)NC(=O)[C@@H]2CCC(=O)N2)CCN(S(=O)(=O)c2ccccc2[N+](=O)[O-])C/C=C\C[C@H](C(=O)O)NC(=O)[C@@H]2CCCN2C1=O | – | EC50 (Apelin receptor [1]; hek293): 63 nM; Ki (Apelin receptor [2]; hek293): 0.1 nM; EC50 (Apelin receptor [3]; hek293): 1.7 nM |

The remaining molecules from weak to strong by Ki (Apelin receptor [2]), led by results:

| Ki (Apelin receptor [2]) | Structure (SMILES) | other results |
| --- | --- | --- |
| 310 nM | CCCC[C@@H]1NC(=O)[C@@H](NC(=O)CNC(=O)[C@H](CCCCN)NC(=O)[C@H](Cc2cnc[nH]2)NC(=O)[C@H](CO)NC(=O)[C@H](CC(C)C)NC(=O)[C@H](CCCNC(=N)N)NC(=O)N2CCC[C@H]2C(=O)[C@H](CCCNC(=N)N)NC(=O)[C@@H]2CCC(=O)N2)C/C=C\C[C@@H](C(=O)O)NC(=O)[C@H](Cc2ccccc2)NC(=O)[C@@H]2CCCN2C1=O ({X6-CO}-RLSHKG[AllylGly][Nle]PF[AllylGly]-OH; staple (Z) 7-11) | – |
| 194 nM | C=CC[C@H](NC(=O)CNC(=O)[C@H](CCCCN)NC(=O)[C@H](Cc1cnc[nH]1)NC(=O)[C@H](CC=C)NC(=O)[C@H](CC(C)C)NC(=O)[C@H](CCCNC(=N)N)NC(=O)[C@@H]1CCCN1C(=O)[C@H](CCCNC(=N)N)NC(=O)[C@@H]1CCC(=O)N1)C(=O)N[C@@H](CCCC)C(=O)N1CCC[C@H]1C(=O)N[C@@H](Cc1ccccc1)C(=O)O ([pGlu]RPRL[AllylGly]HKG[AllylGly][Nle]PF-OH) | – |
| 41 nM | CCCC[C@H](NC(=O)[C@@H]1CCCN1C(=O)[C@@H]1C/C=C\C[C@H](NC(=O)[C@H](CCCNC(=N)N)NC(=O)[C@@H]2CCCN2C(=O)[C@H](CCCNC(=N)N)NC(=O)[C@@H]2CCC(=O)N2)C(=O)N[C@@H](CO)C(=O)N[C@@H](Cc2cnc[nH]2)C(=O)N[C@@H](CCCCN)C(=O)N1)C(=O)N1CCC[C@H]1C(=O)N[C@@H](Cc1ccccc1)C(=O)O ([pGlu]RPR[AllylGly]SHK[AllylGly]P[Nle]PF-OH; staple (Z) 5-9) | – |
| 3.9 nM | C=CC[C@H](NC(=O)[C@H](CCCNC(=N)N)NC(=O)[C@@H]1CCCN1C(=O)[C@H](CCCNC(=N)N)NC(=O)[C@@H]1CCC(=O)N1)C(=O)N[C@@H](CO)C(=O)N[C@@H](Cc1cnc[nH]1)C(=O)N[C@@H](CCCCN)C(=O)N[C@@H](CC=C)C(=O)N1CCC[C@H]1C(=O)N[C@@H](CCCC)C(=O)N1CCC[C@H]1C(=O)N[C@@H](Cc1ccccc1)C(=O)O ([pGlu]RPR[AllylGly]SHK[AllylGly]P[Nle]PF-OH) | – |
| 2.9 nM | C=CC[C@H](NC(=O)[C@H](CC(C)C)NC(=O)[C@H](CCCNC(=N)N)NC(=O)[C@@H]1CCCN1C(=O)[C@H](CCCNC(=N)N)N(CC=C)C(=O)[C@@H]1CCC(=O)N1)C(=O)N[C@@H](Cc1cnc[nH]1)C(=O)N[C@@H](CCCCN)C(=O)NCC(=O)N1CCC[C@H]1C(=O)N[C@@H](CCCC)C(=O)N1CCC[C@H]1C(=O)N[C@@H](Cc1ccccc1)C(=O)O | EC50 (Apelin receptor [1]): 232 nM; EC50 (Apelin receptor [3]): 5.7 nM |
| 2.7 nM | C=CC[C@H](NC(=O)[C@H](Cc1cnc[nH]1)NC(=O)[C@H](CO)NC(=O)[C@H](CC(C)C)NC(=O)[C@H](CCCNC(=N)N)N(CC=C)C(=O)[C@@H]1CCCN1C(=O)[C@H](CCCNC(=N)N)NC(=O)[C@@H]1CCC(=O)N1)C(=O)NCC(=O)N1CCC[C@H]1C(=O)N[C@@H](CCCC)C(=O)N1CCC[C@H]1C(=O)N[C@@H](Cc1ccccc1)C(=O)O ([pGlu]RP[X3]LSH[AllylGly]GP[Nle]PF-OH) | EC50 (Apelin receptor [1]): 91 nM; EC50 (Apelin receptor [3]): 2.1 nM |
| 2.5 nM | C=CC[C@H](NC(=O)[C@H](CCCNC(=N)N)NC(=O)[C@@H]1CCCN1C(=O)[C@H](CCCNC(=N)N)NC(=O)[C@@H](N)CC=C)C(=O)N[C@@H](CO)C(=O)N[C@@H](Cc1cnc[nH]1)C(=O)N[C@@H](CCCCN)C(=O)NCC(=O)N1CCC[C@H]1C(=O)N[C@@H](CCCC)C(=O)N1CCC[C@H]1C(=O)N[C@@H](Cc1ccccc1)C(=O)O | EC50 (Apelin receptor [1]): 35 nM; EC50 (Apelin receptor [3]): 0.4 nM |
| 2.3 nM | C=CC[C@H](NC(=O)[C@H](Cc1cnc[nH]1)NC(=O)[C@H](CO)NC(=O)[C@H](CC(C)C)NC(=O)[C@H](CCCNC(=N)N)NC(=O)[C@@H]1CCCN1C(=O)[C@H](CCCNC(=N)N)NC(=O)[C@@H]1CCC(=O)N1)C(=O)NCC(=O)N1CCC[C@H]1C(=O)N[C@@H](CCCC)C(=O)N[C@@H](CC=C)C(=O)N[C@@H](Cc1ccccc1)C(=O)O ([pGlu]RPRLSH[AllylGly]GP[Nle][AllylGly]F-OH) | EC50 (Apelin receptor [1]): 58 nM; EC50 (Apelin receptor [3]): 0.8 nM |
